As a reminder, the IC50 is the concentration that gives 50% inhibition. Read a high IC50 as weaker potency.

The record followed here is patent US7592352B2, “Substituted thieno and furo-pyridines” (SmithKline Beecham Corporation, priority 2003, dated 2009).

Type in all cases: biochemical
Assay [1] deals with T1, Src (Homo sapiens, UniProt P12931).
T1 construct: precede the first globular domain (amino acids 86-536, BR# 455)
The assay is described as follows: Src enzyme assay (HTRF). The settings on record: N-85 Src, 10 μM ATP, pIC50 = -log10(IC50) in Molar. The source says:
The Src enzyme assay used Homogeneous Time Resolved Fluorescence (HTRF) assay technology to measure the enzyme activity. HTRF is based on fluorescence resonance energy transfer between a Europium-labeled phospho-tyrosine antibody (donor) and Allophycocyanin (APC) conjugated to streptavidin (acceptor). This method measured the ability of the purified enzymes to catalyze the transfer of the γ-phosphate from ATP onto tyrosine residues in a biotinylated synthetic peptide. The peptide used for the Src enzyme activity assay was biotin-(6-amino caproic acid)-AAAQQIYGQI-NH2. The enzyme used was baculovirus expressed N-85 Src with the deletion of first 85 amino acids, which precede the first globular domain (amino acids 86-536, BR# 455).
To preactivate enzyme, 180 μM N-85 Src was incubated with 5 mM ATP and 50 mM MgCl2 for 40 min on ice. The preactivated enzyme (0.4 nM final concentration) was then incubated for 30 min at room temperature in either 96-well or 384-well plates containing 200 nM peptide, 10 μM ATP, 0.05 mg/ml MgCl2, and test compound in 0.1 M HEPES pH 7.5. Each reaction was first stopped by the addition of 45 mM EDTA in 0.1 M HEPES pH7.5, then, HTRF reagent was added to measure the signal. After 10 min incubation at room temperature, the plates were read at 665 nm on a Wallac Victor reader with a time delay. The percent inhibition of activity was calculated relative to positive (C1) and negative (C2, EDTA added) control wells using, 100*(1−(U1−C2)/(C1−C2)). The concentration of test compound yielding 50% inhibition was determined using the equation, y=((Vmax*x)/(K+x))+Y2, where “K” was equal to the IC50. The IC50 values were converted to pIC50 values, i.e., −log IC50 in Molar concentration.
In general terms: In TR-FRET formats the signal depends on donor and acceptor labels being close together.

The target in assay [2] is T2, human TIE2 (Homo sapiens, UniProt Q02763).
T2 construct: made in house
The assay is described as follows: TIE-2 enzyme assay (LANCE method). The settings on record: GST-TIE2, 80 uM ATP, pIC50 = -log10(IC50) in Molar. From the text:
The TIE-2 enzyme assay used the LANCE method (Wallac) and GST-TIE2, baculovirus expressed recombinant constructs of the intracellular domains of human TIE2 (amino acids 762-1104, GenBank Accession # L06139) tagged by GST). The method measured the ability of the purified enzymes to catalyse the transfer of the γ-phosphate from ATP onto tyrosine residues in a biotinylated synthetic peptide, D1-15 (biotin-C6-LEARLVAYEGWVAGKKKamide). This peptide phosphorylation was detected using the following procedure: for enzyme preactivation, GST-TIE2 was incubated for 30 mins at room temperature with 2 mM ATP, 5 mM MgCl2 and 12.5 mM DTT in 22.5 mM HEPES buffer (pH7.4). Preactivated GST-TIE2 was incubated for 30 mins at room temperature in 96 well plates with 1 uM D1-15 peptide, 80 uM ATP, 10 mM MgCl2, 0.1 mg/ml BSA and the test compound (diluted from a 10 mM stock in DMSO, final DMSO concentration was 2.4%) In 1 mM HEPES (pH7.4). The reaction was stopped by the addition of EDTA (final concentration 45 mM). Streptavidin linked-APC (allophycocyanin, Molecular Probe) and Europium-labeled anti-phosphorylated tyrosine antibody (Wallac) were then added at the final concentration of 17 ug/well and 2.1 ug/well, respectively. The APC signal was measured using an ARVO multilabel counter. (Wallac Berthold Japan). The percent inhibition of activity was calculated relative to blank control wells. The concentration of test compound that inhibits 50% of activity (IC50) was interpolated using nonlinear regression (Levernberg-Marquardt) and the equation, y=Vmax (1−x/(K+x))+Y2, where “K” was equal to the IC50. The IC50 values were converted to pIC50 values, i.e., −log IC50 in Molar concentration.

Assay [3] concerns the target T3, human EphB4 (Homo sapiens, UniProt P54760).
T3 construct: human EphB4 (amino acids 600-914, BR # 21454)
T3 sequence (P54760 600-914): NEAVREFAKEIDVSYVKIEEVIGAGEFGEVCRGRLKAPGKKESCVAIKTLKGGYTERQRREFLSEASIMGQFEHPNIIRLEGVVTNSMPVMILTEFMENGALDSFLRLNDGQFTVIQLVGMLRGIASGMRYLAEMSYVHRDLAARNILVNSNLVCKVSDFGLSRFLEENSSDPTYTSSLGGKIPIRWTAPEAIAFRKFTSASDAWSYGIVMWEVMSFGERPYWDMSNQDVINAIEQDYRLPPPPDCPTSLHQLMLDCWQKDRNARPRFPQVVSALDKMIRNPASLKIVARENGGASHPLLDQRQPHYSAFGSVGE
The assay is described as follows: EphB4 enzyme assay (Scintillation Proximity Assay). Particulars: GST-EphB4, 1 uM ATP, SPA; pIC50 = -log10(IC50) in Molar. Here is the method: The EphB4 enzyme assay used Scintillation Proximity Assay technology to measure enzyme activity. This method measured the ability of the purified enzymes to catalyse the transfer of the γ-phosphate from ATP onto tyrosine residues in a biotinylated synthetic peptide. […] Each reaction was stopped by the addition of 0.1 mg Streptavidin SPA beads in 100 mM EDTA/1×PBS, pH 7.2. The signal was measured using a Wallac Trilux scintillation counter (Wallac). The percent inhibition of activity was calculated relative to positive (C1) and negative (C2) control wells using, 100*(1−(U1−C2)/(C1−C2)). The concentration of test compound was determined using the equation, y=((Vmax*x)/(K+x))+Y2, where “K” was equal to the IC50. The IC50 values were converted to pIC50 values, i.e., −log IC50 in Molar concentration.
For orientation: SPA uses beads or plates that emit light when radiolabelled molecules are held near them.

In assay [4] the target is T4, VEGFR-2 (Homo sapiens, UniProt P35968).
T4 construct: GST-VEGFR2, baculovirus expressed recombinant constructs of the intracellular domains; made in house
The assay is described as follows: VEGFR-2 enzyme assay (LANCE method). The settings on record: GST-VEGFR2, 75 uM ATP, pIC50 = -log10(IC50) in Molar. The procedure: The VEGF enzyme assay used the LANCE method (Wallac) and GST-VEGFR2, baculovirus expressed recombinant constructs of the intracellular domains of human […] tagged by GST. […] The reaction was stopped by the addition of EDTA (final concentration 50 mM). […] The APC signal was measured using an ARVO multilabel counter (Wallac Berthold, Japan). The percent inhibition of activity was calculated relative to blank control wells. […] The IC50 values were converted to pIC50 values, i.e., −log IC50 in Molar concentration.

T1 sequence (P12931 86-536): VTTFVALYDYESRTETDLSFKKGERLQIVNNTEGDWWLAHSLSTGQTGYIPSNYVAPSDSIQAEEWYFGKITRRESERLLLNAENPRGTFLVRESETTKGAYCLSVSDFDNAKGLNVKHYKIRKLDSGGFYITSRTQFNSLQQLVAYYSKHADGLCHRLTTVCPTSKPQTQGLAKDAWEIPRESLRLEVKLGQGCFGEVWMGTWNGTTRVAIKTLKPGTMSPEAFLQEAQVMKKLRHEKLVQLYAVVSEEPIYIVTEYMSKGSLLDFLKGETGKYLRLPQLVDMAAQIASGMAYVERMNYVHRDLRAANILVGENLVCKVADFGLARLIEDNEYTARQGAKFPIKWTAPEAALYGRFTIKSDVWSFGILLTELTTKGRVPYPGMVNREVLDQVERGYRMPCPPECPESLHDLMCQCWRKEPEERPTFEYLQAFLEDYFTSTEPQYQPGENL
T2 sequence (Q02763 762-1104): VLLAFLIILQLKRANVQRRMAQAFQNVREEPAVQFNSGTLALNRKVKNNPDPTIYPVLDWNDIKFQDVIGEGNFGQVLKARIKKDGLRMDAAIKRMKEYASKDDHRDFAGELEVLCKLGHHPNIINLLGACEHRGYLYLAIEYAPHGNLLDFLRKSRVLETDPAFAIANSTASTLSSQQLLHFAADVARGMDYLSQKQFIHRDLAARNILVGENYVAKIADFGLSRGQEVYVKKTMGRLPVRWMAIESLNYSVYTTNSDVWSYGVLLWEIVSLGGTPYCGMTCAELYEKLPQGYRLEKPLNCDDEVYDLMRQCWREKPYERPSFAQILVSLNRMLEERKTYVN
T4 sequence (P35968 786-1356 limits assumed): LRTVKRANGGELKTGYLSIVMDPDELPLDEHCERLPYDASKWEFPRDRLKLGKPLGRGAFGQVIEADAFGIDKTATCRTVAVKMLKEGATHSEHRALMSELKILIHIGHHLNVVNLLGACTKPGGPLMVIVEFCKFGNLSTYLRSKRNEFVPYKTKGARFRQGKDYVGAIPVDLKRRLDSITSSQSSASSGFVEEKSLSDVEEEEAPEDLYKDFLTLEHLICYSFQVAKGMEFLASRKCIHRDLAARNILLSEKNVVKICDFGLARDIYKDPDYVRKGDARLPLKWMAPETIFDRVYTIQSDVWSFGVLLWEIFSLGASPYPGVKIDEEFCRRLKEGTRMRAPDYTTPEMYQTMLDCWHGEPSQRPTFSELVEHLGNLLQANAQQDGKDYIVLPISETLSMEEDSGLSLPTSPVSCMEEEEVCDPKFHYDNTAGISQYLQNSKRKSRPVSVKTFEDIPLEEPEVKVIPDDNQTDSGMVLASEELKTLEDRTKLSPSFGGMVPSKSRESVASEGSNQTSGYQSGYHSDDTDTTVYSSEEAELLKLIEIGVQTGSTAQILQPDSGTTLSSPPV

For `Nc1ncc(-c2cccc(Cl)c2)c2occ(-c3ccc(NC(=O)Nc4cc(C(F)(F)F)ccc4F)cc3)c12` [Ia], the half-inhibitory concentration (IC50) in assay [1] was 10.2 to 100 nM.

Take `COc1cc(-c2cnc(N)c3c(-c4ccc5[nH]ccc5c4)csc23)cc(OC)c1OC` [Iaa, 4-Amino-3 (1H-Indol-5-yl)-7-(3,4,5-trimethoxyphenyl)-thieno[3,2-c]pyridine]: the IC50 in assay [2] was 102 to 1000 nM.

Consider `Nc1nccc2occ(-c3ccc(NC(=O)Nc4cc(C(F)(F)F)ccc4F)cc3)c12` [Ib], for which the half-inhibitory concentration (IC50) was 3.24 to 31.6 nM in assay [3], 10.2 to 100 nM in assay [2], 3.24 to 31.6 nM in assay [4] and 102 to 1000 nM in assay [1].

Turning to `Nc1ncc(-c2cccc(S(N)(=O)=O)c2)c2occ(-c3ccc(NC(=O)Nc4cc(C(F)(F)F)ccc4F)cc3)c12` [Id], the half-maximal inhibitory concentration (IC50) in assay [3] was 0.316 to 3.16 nM; in assay [2] it was 1 to 10 nM; in assay [1], 1 to 10 nM.

Turning to `Nc1ncc(-c2cccnc2)c2occ(-c3ccc(NC(=O)Nc4cc(C(F)(F)F)ccc4F)cc3)c12` [Ie], the 50% inhibitory concentration (IC50) in assay [4] was 0.316 to 3.16 nM.
